Reference: PubChem BioAssay (NCI)
Values joined by “and” are separate entries in the source; they are usually repeats but may differ in a detail not shown here. Equal entries are not always repeated.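 Following 48 hours of exposure in 96-well plates, responses at five concentrations were used to interpolate endpoints linearly. GI50 is the concentration that inhibits growth by half. TGI: concentration producing complete growth inhibition.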

How the values were obtained:
Test in all cases: DTP human tumour cell line panel, 48 h
CCRF-CEM leukemia = test system: CCRF-CEM leukemia
EKVX NSCLC = test system: EKVX NSCLC
HCT-15 colon = test system: HCT-15 colon
K-562 leukemia = test system: K-562 leukemia
NCI-H460 lung = test system: NCI-H460 lung
NCI-H522 lung = test system: NCI-H522 lung
SK-MEL-5 melanoma = test system: SK-MEL-5 melanoma
SNB-75 CNS = test system: SNB-75 CNS
TK-10 renal = test system: TK-10 renal
NCI-H226 lung = test system: NCI-H226 lung

SMILES	TGI (CCRF-CEM leukemia)	TGI (EKVX NSCLC)	TGI (HCT-15 colon)	TGI (K-562 leukemia)	TGI (NCI-H460 lung)	TGI (NCI-H522 lung) [µM]	TGI (SK-MEL-5 melanoma) [µM]	TGI (SNB-75 CNS) [µM]	TGI (TK-10 renal) [µM]	GI50 (CCRF-CEM leukemia) [µM]	GI50 (EKVX NSCLC) [µM]	GI50 (HCT-15 colon) [µM]	GI50 (K-562 leukemia) [µM]	GI50 (NCI-H460 lung) [µM]	GI50 (NCI-H522 lung) [µM]	GI50 (SK-MEL-5 melanoma) [µM]	GI50 (SNB-75 CNS) [µM]	GI50 (TK-10 renal) [µM]	TGI (NCI-H226 lung) [µM]	GI50 (NCI-H226 lung) [µM]
O=C(O)c1nnsc1COCc1ccccc1	> 100 µM	> 100 µM	> 100 µM	> 100 µM	> 100 µM	> 100	> 100	> 100	> 100											
c1cncc(C2c3[nH]c4ccccc4c3CCN2CCN2CCCCC2)c1 (stereo unspecified)	> 100 µM	> 100 µM	> 100 µM	> 100 µM	> 100 µM	> 100	> 100	> 100	> 100											
OC1CCC(Oc2cccc3cnc(Nc4ccc5nc[nH]c5c4)nc23)CC1 (stereo unspecified)	17.3 µM	10.8 µM	16.7 µM	19.3 µM	11.8 µM	5.3	6.51	2.21	11.4	0.282	0.487	0.508	0.536	0.275	1.13	0.47	0.12	0.296		
O=C(N=Nc1c(O)[nH]c2ccccc12)c1ccccc1O	> 100 µM	> 100 µM	> 100 µM	> 100 µM	> 100 µM	> 100		94.2	> 100										> 100	
CCCN(CCC)c1c([N+](=O)[O-])cc(S(N)(=O)=O)cc1[N+](=O)[O-]	46.5 µM	37.5 µM	32.2 µM	35.7 µM	29.4 µM	31.5	33.5	32.4											42.7	
COc1ccc([N+](=O)[O-])c2c(NCC(O)CO)ccnc12 (stereo unspecified)	> 100 µM	82.3 µM	35.1 µM	> 100 µM	52 µM	30.2	60.8	> 100	> 100											
CC(O)C(NC(=O)C(CS)NC(=O)C(CO)NC(=O)C(CCCCN)NC(=O)C(Cc1c[nH]c2ccccc12)NC(=O)C(Cc1ccc(O)cc1)NC(=O)C(CS)NC(=O)C(N)Cc1ccccc1)C(N)=O (stereo unspecified)	> 25 µM and 43.3 µM	> 25 µM and 83.9 µM	> 25 µM and 56.2 µM	> 25 µM and 32.1 µM	> 25 µM and 53.8 µM	> 25	> 25	62.5		19.7	36.1		17.8						> 25	
O=[N+]([O-])/C=C\c1ccc2c(c1)OCO2	25 µM	34.9 µM	6.68 µM	> 100 µM	27.5 µM		13.9	22.2	10	3.9	14.4	2.46	3.16	10.6		3.68	10.3	3.16	53	13.8
Cn1nnnc1[N-]Cc1ccccc1.[Au+].c1ccc([PH+](c2ccccc2)c2ccccc2)cc1	3.95 µM	5.78 µM	9.18 µM		65.7 µM		3.6	20.5	5.02	0.752	4.08	2.53		19.1		1.6	7.92	2.46	29.7	8.49
CN(C)CCNC(=O)c1cccc(CO)c1[N+](=O)[O-]	> 100 µM		> 100 µM	> 100 µM	> 100 µM	> 100	> 100	> 100	> 100										> 100	
ClCCn1cnc2c(SCc3ccccc3)ncnc21	> 100 µM	> 100 µM	> 100 µM	> 100 µM	30.1 µM		> 100	> 100	> 100	0.889	18.3	0.334	0.64	0.356		0.79	0.777	0.924	> 100	31
Cc1ccc(N2C(=O)C(Cl)=C(Nc3cccc(O)c3)C2=O)cc1Cl	46.8 µM		40.1 µM	52.8 µM	26.7 µM	> 100	28.9		33.4	18.5		18.6	18.9	11.6	31.8	15		18.5		
COc1cccc2c(=O)c3c(sc12)c(NCCCN)nc1ccccc13	4.86 µM	2.81 µM	2.7 µM		2.23 µM	3.65	3.07	3.2	3.63	1.91	1.43	1.32		0.745	1.81	1.69	1.64	1.99	3.15	1.52
COC(=O)/C(=N/NC(C)(C)C)C(C(=O)C=C(C)C)C(=O)C(=O)Nc1ccc(Cl)cc1C (stereo unspecified)	> 100 µM	> 100 µM	> 100 µM	> 100 µM	> 100 µM	> 100	> 100		> 100										> 100	
CC1=CC[C@@H]2C(C)(C)[C@@H](O)CC[C@@]2(C)[C@@H]1COc1ccc2ccc(=O)oc2c1	19.9 µM	26.7 µM	15.8 µM	27.5 µM	25.7 µM	22.1	12.7		26.4	3.39	10.3	3.6	3.28	7.68	3.81	3.48		12.5	19.8	4.28
c1cc2c(cnc3cscc32)s1	> 100 µM		> 100 µM	> 100 µM	> 100 µM	> 100	> 100	> 100	> 100										> 100	
CC1=C2N3C[C@@H](n4c(=O)n(C)c(=O)n43)C23CCC1n1c(=O)n(C)c(=O)n13	> 100 µM	> 100 µM	52.8 µM	> 100 µM	> 100 µM		> 100	> 100	> 100										> 100	
COc1ccc(/C=[N+](\[O-])[C@H](COCc2ccccc2)c2ccccc2)cc1	> 100 µM	> 100 µM		> 100 µM	> 100 µM	> 100		> 100	> 100											
CN(C)CCNc1cccc2sc3ccc(O)cc3c(=O)c12	6.61 µM		5.09 µM	5.6 µM	2.47 µM	5.66	3.25	12.2	17.5	0.777		1.43	2.4	0.548	1.77	1.69	2.33	5.58	23.1	5.94

SMILES	TGI (CCRF-CEM leukemia)	TGI (EKVX NSCLC)	TGI (HCT-15 colon)	TGI (K-562 leukemia)	TGI (NCI-H460 lung)	TGI (NCI-H522 lung) [µM]	TGI (SK-MEL-5 melanoma) [µM]	TGI (SNB-75 CNS) [µM]	TGI (TK-10 renal) [µM]	GI50 (CCRF-CEM leukemia) [µM]	GI50 (EKVX NSCLC) [µM]	GI50 (HCT-15 colon) [µM]	GI50 (K-562 leukemia) [µM]	GI50 (NCI-H460 lung) [µM]	GI50 (NCI-H522 lung) [µM]	GI50 (SK-MEL-5 melanoma) [µM]	GI50 (SNB-75 CNS) [µM]	GI50 (TK-10 renal) [µM]	TGI (NCI-H226 lung) [µM]	GI50 (NCI-H226 lung) [µM]
Cn1c(=O)c2c(nc3n2CCC(=O)N3)n(C)c1=O	> 100 µM	> 100 µM		> 100 µM	> 100 µM	> 100	> 100		> 100										> 100	
NC(N)=N/N=C/c1c(-c2cc(Cl)sc2Cl)nc2n1CCS2	19.6 µM	18.1 µM	16.6 µM	43.7 µM	> 50 µM	> 50	18.2		15.8	8.67	9.21	9	16	25.5	20.4	10.1		8.65	16.8	8.31
C=CCN(N=O)C(=O)N(CCC)CCCC(NC(C)=O)C(=O)NCc1ccccc1 (stereo unspecified)	> 100 µM	> 100 µM	> 100 µM	> 100 µM	> 100 µM	> 100	> 100	> 100	> 100											
C=C1C(=O)O[C@H]2[C@H]1CC/C(COC(=O)c1ccc(C(=O)O)s1)=C\CC[C@@]1(C)O[C@@H]21	8.66 µM	5.68 µM	4.72 µM	> 100 µM	10.8 µM	3.87	13.3		3.44	1.63	2.21	1.65	1.47	3.33	1.93	3.64		1.64	30.5	12.2
CC(C)(C)N=CN1CCC(C(c2ccccc2)c2ccccc2)CC1		> 100 µM	> 100 µM	> 100 µM	> 100 µM		> 100	> 100	> 100											
CN(C)CN1C(=O)S/C(=C2\C(=O)N(CN(C)C)c3ccccc32)C1=O		> 100 µM	> 100 µM		> 100 µM	> 100	> 100	74.5	> 100										> 100	
C=C1C(O)C2C(=C(CC(C)C)C13CC3)C(=O)C(C)(C)C2OC (stereo unspecified)	> 100 µM	> 100 µM	> 100 µM	> 100 µM	> 100 µM	> 100	> 100		> 100	86.6	> 100	> 100	81.5	> 100	> 100	> 100		> 100		
OCC1OC(N2C=C(c3nc4ccccc4s3)C3C=CC=CC32)C(O)C1O (stereo unspecified)		25.4 µM	22 µM	> 50 µM	> 50 µM	> 50	14.5	26	21.9		6.27	7.92	16.3	9.91	> 50	6.1	7.8	6.65	25.5	8.81
c1cc(-c2sc(-c3ccncc3)c(-c3ccncc3)c2-c2ccncc2)ccn1		43.9 µM	56.7 µM	> 100 µM	23.8 µM	35.9	28.6	40.9	32.9										30.4	
CCCCCCCCCCCC(=O)C1=C(O)C(O)CCC1=O (stereo unspecified)	40.6 µM	34.1 µM	27.3 µM	43 µM	44.4 µM	33.1		67.7	49										70.3	
CC/C=C\C[C@H](O)C/C=C1/C(=O)C=C[C@@H]1C/C=C\CCCC(N)=O	8.07 µM	15.7 µM	5.69 µM		6.97 µM	2.67	2.97	22.3	6.95	1.38	4.29	1.74		2.27	1.3	1.56	10.5	3.16	5.48	2.34
CC1(C)OC2C(=O)OC(COCc3ccccc3)C2O1 (stereo unspecified)	> 100 µM	> 100 µM	> 100 µM	> 100 µM	> 100 µM		> 100	> 100	> 100										> 100	
Cc1c2ncccc2c(C)c2c1[nH]c1ccccc12	35.3 µM	30.7 µM	54.3 µM	41.7 µM	28.7 µM	26.7		22.6	31.7										35.9	
O=C1c2cccc3cc([N+](=O)[O-])cc(c23)C(=O)N1CCCN1CCN(CCCN2C(=O)c3cccc4cc([N+](=O)[O-])cc(c34)C2=O)CC1	> 100 µM	> 100 µM	> 100 µM	> 100 µM	> 100 µM		2.37	9.54	16										1.37	
Cn1cc(NC(=O)c2cc(NC(=O)CCCCCC(=O)Nc3cc(C(=O)Nc4cc(C(=O)NCCC(=N)N)n(C)c4)n(C)c3)cn2C)cc1C(=O)NCCC(=N)N	> 100 µM	> 100 µM	> 100 µM	> 100 µM	> 100 µM		> 100	> 100	> 100											
COc1cc2ccc3c4cc(OC)c(OCc5ccccc5)cc4cnc3c2cc1OC	> 100 µM	> 100 µM		> 100 µM	> 100 µM	> 100	> 100	> 100	> 100											
CCOC(=O)C(=O)Nc1c(C)cccc1CC	> 100 µM	> 100 µM		> 100 µM	> 100 µM	> 100	> 100		> 100										> 100	
COc1cc(C(C#N)NNC(=O)c2ccccc2O)ccc1O (stereo unspecified)	> 100 µM		> 100 µM	> 100 µM	> 100 µM	28.7	> 100	8.46	> 100										38	
